Laboratory results from EPA's ToxRefDB 2.

Assays:
[1] = test system: rabbit; details: Sub-acute dermal toxicity, new zealand white, Topical, dose end: 21 day, group: systemic
[2] = test system: rat; details: Prenatal developmental toxicity study, wistar, Oral, Gavage/Intubation, dose end: 15 GD
[3] = test system: rat; details: Carcinogenicity, fischer, Oral, Feed, dose end: 103 week, group: systemic
[4] = test system: rat; details: Subchronic oral toxicity in rodents, fischer, Feed, dose end: 13 week, group: systemic
[5] = test system: mouse; details: Subchronic oral toxicity in rodents, b6c3f1, Feed, dose end: 13 week, group: systemic
[6] = test system: mouse; details: Carcinogenicity, b6c3f1, Oral, Feed, dose end: 103 week, group: systemic
[7] = test system: mouse; details: Subchronic oral toxicity in rodents, b6c3f1, Water, dose end: 13 week, group: systemic
[8] = test system: rat; details: Subchronic oral toxicity in rodents, fischer, Feed, dose end: 13 week, group: systemic; remark: listed apart in the source
[9] = test system: mouse; details: Combined chronic toxicity/carcinogenicity; b6c3f1; Oral; Feed; dose end: 2 year; group: systemic; systemic / in life observation / body weight / body weight
[10] = test system: mouse; details: Prenatal developmental toxicity study, cd1, Oral, Gavage/Intubation, dose end: 14 GD
[11] = test system: rat; details: Combined chronic toxicity/carcinogenicity, fischer, Oral, Feed, dose end: 2 year, group: systemic
[12] = test system: rat; details: Prenatal developmental toxicity study, sprague dawley, Oral, Gavage/Intubation, dose end: 15 GD
[13] = test system: mouse; details: Subchronic oral toxicity in rodents, b6c3f1, Feed, dose end: 13 week, group: systemic; remark: listed apart in the source
[14] = test system: mouse; details: Prenatal developmental toxicity study, cd1, Oral, Gavage/Intubation, dose end: 15 GD
[15] = test system: rat; details: Combined chronic toxicity/carcinogenicity; fischer; Oral; Feed; dose end: 365 day; group: systemic; systemic / pathology gross / full gross necropsy / adenoma
[16] = test system: mouse; details: Combined chronic toxicity/carcinogenicity; other; Oral; Feed; dose end: 365 day; group: systemic; systemic / pathology gross / full gross necropsy / lymphoma malignant
[17] = systemic / in life observation / clinical signs / erythema
[18] = systemic / in life observation / clinical signs / erythema + systemic / in life observation / body weight / body weight + systemic / in life…
[19] = group: developmental, developmental / developmental malformation / eye / anophthalmia + developmental / developmental malformation / eye / microphthalmia + …
[20] = group: maternal, systemic / in life observation / body weight / body weight gain + systemic / in life observation / clinical signs / labored respiration
[21] = group: maternal, systemic / in life observation / body weight / body weight gain + systemic / in life observation / clinical signs / labored respiration + …
[22] = systemic / pathology microscopic / liver / basophilic focus + systemic / pathology microscopic / liver / eosinophilic focus + systemic / …
[23] = systemic / pathology microscopic / liver / hyperplasia + systemic / pathology microscopic / liver / basophilic focus + systemic / pathology …
[24] = systemic / in life observation / body weight / body weight + systemic / pathology microscopic / kidney / pigmentation + systemic / in life …
[25] = systemic / pathology microscopic / kidney / hemosiderosis + systemic / pathology microscopic / liver / hemosiderosis + systemic / pathology …
[26] = systemic / in life observation / body weight / body weight
[27] = systemic / in life observation / body weight / body weight + systemic / in life observation / clinical signs / emaciation + systemic / in …
[28] = systemic / pathology microscopic / nose / degeneration
[29] = systemic / in life observation / body weight / body weight + systemic / in life observation / clinical signs / aggressive behavior + …
[30] = group: developmental, systemic / in life observation / body weight / fetal weight
[31] = group: developmental, systemic / in life observation / body weight / fetal weight + developmental / developmental malformation / mouth / jaw / cleft palate
[32] = group: maternal, systemic / in life observation / body weight / body weight gain
[33] = group: maternal, systemic / in life observation / body weight / body weight gain + systemic / in life observation / body weight / body weight + systemic / in…
[34] = systemic / pathology microscopic / liver / granuloma
[35] = systemic / pathology microscopic / liver / granuloma + systemic / pathology microscopic / pituitary gland / adenoma
[36] = group: developmental, developmental / developmental malformation / kidney / hydronephrosis + developmental / developmental malformation / ureter / hydroureter + …
[37] = group: maternal, systemic / in life observation / body weight / body weight + systemic / in life observation / body weight / body weight gain + systemic / in…
[38] = systemic / in life observation / body weight / body weight + systemic / in life observation / clinical signs / fur (altered appearance) + …
[39] = group: developmental, developmental / developmental malformation / mouth / jaw / cleft palate + systemic / in life observation / body weight / fetal weight
[40] = group: maternal, systemic / in life observation / body weight / body weight gain + systemic / in life observation / body weight / body weight + systemic / …

## Cc1cc(O)ccc1Cl [4-Chloro-3-methylphenol]
[1]; [17]
  LOAEL: 10 mg/kg/day
  NOAEL: < 10 mg/kg/day
[1]; [18]
  LEL: 10 mg/kg/day
  NEL: < 10 mg/kg/day
[2]; [19]
  LEL: 300 mg/kg/day
  LOAEL: 300 mg/kg/day
  NEL: 100 mg/kg/day
  NOAEL: 100 mg/kg/day
[2]; [20]
  LEL: 100 mg/kg/day
  LOAEL: 100 mg/kg/day
[2]; [21]
  NEL: 30 mg/kg/day
  NOAEL: 30 mg/kg/day

## Oc1ccc2ccccc2c1N=Nc1ccccc1 [C.I. Solvent Yellow 14]
[3]; [22]
  LOAEL: 25 mg/kg/day
  NOAEL: 12.5 mg/kg/day
[3]; [23]
  LEL: 12.5 mg/kg/day
  NEL: < 12.5 mg/kg/day
[4]; [24]
  NEL: 12.5 mg/kg/day
  NOAEL: 25 mg/kg/day
[4]; systemic / in life observation / body weight / body weight + systemic / pathology microscopic / kidney / pigmentation + systemic / pathology…
  LOAEL: 50 mg/kg/day
[4]; systemic / pathology microscopic / kidney / pigmentation
  LEL: 25 mg/kg/day
[5]; [25]
  LOAEL: 300 mg/kg/day
  NEL: 75 mg/kg/day
  NOAEL: 150 mg/kg/day
[5]; systemic / pathology microscopic / spleen / hemosiderosis
  LEL: 150 mg/kg/day
[6]; [26]
  LEL: 75 mg/kg/day
  LOAEL: 150 mg/kg/day
  NEL: < 75 mg/kg/day
[6]; systemic / in life observation / body weight / body weight + systemic / in life observation / body weight / body weight gain
  NOAEL: 75 mg/kg/day

## ON=C1CCCCC1 [Cyclohexanone oxime]
[7]; [27]
  LOAEL: > 1150 mg/kg/day
  NOAEL: ≥ 1150 mg/kg/day
[7]; [28]
  LEL: 132 mg/kg/day
  NEL: < 132 mg/kg/day

## CN(C)CCOC(c1ccccc1)c1ccccc1.Cl [Diphenhydramine hydrochloride]
[8]; [26]
  LOAEL: 31.3 mg/kg/day
[8]; [29]
  NEL: 7.8 mg/kg/day
  NOAEL: 15.7 mg/kg/day
[8]; systemic / pathology microscopic / liver / vacuolization cytoplasmic
  LEL: 15.7 mg/kg/day
[9]
  LEL: 21 mg/kg/day
  LOAEL: 46 mg/kg/day
  NEL: < 21 mg/kg/day
  NOAEL: 21 mg/kg/day
[10]; [30]
  LEL: 80 mg/kg/day
  NEL: < 80 mg/kg/day
[10]; [31]
  LOAEL: > 200 mg/kg/day
  NOAEL: ≥ 200 mg/kg/day
[10]; [32]
  LEL: 80 mg/kg/day
  NEL: < 80 mg/kg/day
[10]; [33]
  LOAEL: > 200 mg/kg/day
  NOAEL: ≥ 200 mg/kg/day
[11]; [34]
  LEL: 7 mg/kg/day
  NEL: < 7 mg/kg/day
[11]; [35]
  LOAEL: > 15 mg/kg/day
  NOAEL: ≥ 15 mg/kg/day
[12]; [36]
  LEL: 100 mg/kg/day
  LOAEL: > 100 mg/kg/day
  NEL: 50 mg/kg/day
  NOAEL: ≥ 100 mg/kg/day
[12]; [37]
  LEL: 100 mg/kg/day
  LOAEL: > 100 mg/kg/day
  NEL: 50 mg/kg/day
  NOAEL: ≥ 100 mg/kg/day
[13]; [26]
  LOAEL: 93.8 mg/kg/day
[13]; [38]
  LEL: 93.8 mg/kg/day
  NEL: 47 mg/kg/day
  NOAEL: 47 mg/kg/day
[14]; group: developmental, developmental / developmental malformation / mouth / jaw / cleft palate
  LEL: 80 mg/kg/day
[14]; [39]
  LOAEL: > 160 mg/kg/day
  NEL: 40 mg/kg/day
  NOAEL: ≥ 160 mg/kg/day
[14]; [32]
  LEL: 80 mg/kg/day
[14]; [40]
  LOAEL: > 160 mg/kg/day
  NEL: 40 mg/kg/day
  NOAEL: ≥ 160 mg/kg/day

## NC(N)=O [Urea]
[15]
  LEL: 225 mg/kg/day
  LOAEL: > 225 mg/kg/day
  NEL: < 225 mg/kg/day
  NOAEL: ≥ 225 mg/kg/day
[16]
  LEL: 675 mg/kg/day
  LOAEL: > 675 mg/kg/day
  NEL: < 675 mg/kg/day
  NOAEL: ≥ 675 mg/kg/day
